Measurements published in patent publication EP0248999A2, “Uses of enprostil-type prostaglandins in regulating fat and carbohydrate metabolism” (SYNTEX (U.S.A.) INC., priority 1986, dated 1987).
Read-outs that look alike come from different tables or passages of the source.

How the values were obtained:
serum glucose levels = test: Example 8 (headed 'Example'): 30-day dosing study with standard breakfast, serum glucose; type: in vivo, human; settings: enprostil 35 pg BID
Experimental: 20 subjects participated in a study lasting up to 44 days. On day -8, all 20 subjects received a placebo capsule, followed 30 minutes later by a standard breakfast with serial blood measurements. Eight days later all 20 subjects were randomized to either enprostil 35 pg BID or placebo, and continued dosing for a period of 30 days. On days 1, 8, and 30, they were given enprostil followed 30 minutes later by a standard breakfast with serial blood measurements.

serum cholesterol levels [1] = test: Example 2, Table 1: oral enprostil BID in hypercholesterolemic patients versus placebo; type: in vivo, human
Experimental: (§1) The following non-limiting examples will further clarify the nature of this invention. In these examples, serum lipids and cholesterol were measured by standard methods ("Manual of Laboratory Operations, Lipid Research Clinic Program, Lipid and Lipoprotein Analysis", DHEW Publication No. (NIH) 75-628 (1974)); serum insulin, GIP, and C-peptide were measured by radioimmunoassay; and apoproteins were measured by radial immunodiffusion.

serum glucose = test: Example 7: 25 g intravenous glucose tolerance test; type: in vivo, human; settings: 25 g intravenous glucose 30 minutes after enprostil, day 2 and day 10
Experimental: (§2) 10 normal subjects participated in a 10-day placebo-controlled cross-over study, receiving either placebo or 70 µg enprostil per day. On day 1 and day 9 of each study phase they orally received 5 g of d-xylose, a sugar not normally metabolized in man. Blood measurements for serum xylose were made at -30, 0, +30, 60, 120, 180, 240, and 300 minutes following ingestion.of xylose. On day 2 and day 10 of each study phase, the subjects received a 25 g intravenous glucose tolerance test, 30 minutes following enprostil administration.

serum xylose = test: Example 7: oral d-xylose absorption test in 10-day cross-over study; type: in vivo, human; settings: 5 g d-xylose orally
Experimental: as §2

[2] = system: serum insulin and glucose levels; test: Example 5: double-blind cross-over meal study, serum insulin and glucose; type: in vivo, human; settings: enprostil orally 30 minutes before meal
Experimental: as §1
A group of 10 subjects participated in a double-blind cross-over study. Either a placebo or enprostil was orally given 30 minutes before meal time and levels of insulin and glucose were measured after the meal.

[3] = system: serum insulin and glucose levels; test: Example 6: eight-day cross-over study with standard breakfast, serum glucose, insulin and GIP; type: in vivo, human; settings: 70 µg orally
Experimental: as §1
Eight healthy male subjects received either […] enprostil per day or placebo for eight days followed by a washout period of one week and a subsequent second eight-day administration during which they received the opposite drug regime.
On day 1 and day 8 of each study period the subjects reported to the clinical studies unit fasting and were administered 70 µg of enprostil orally in a glass of water. Thirty minutes later they were administered a standard breakfast and blood samples were drawn at -30 (just prior to enprostil administration), O (at the time of enprostil administration), 15, 30, 60, 90, 120 and 180 minutes.

serum cholesterol levels [4] = test: Example 3: 44-day placebo-controlled dosing study, total and LDL-cholesterol; type: in vivo, human
Experimental: as §1
In a 44-day dosing study, 20 subjects participated in a placebo-controlled trial. Ten subjects received enprostil and the remainder received placebo. Data were obtained from 9 of the 10 subjects who received enprostil. […] This subject was normocholesterolemic at baseline and no dietary manipulation was attempted.

serum GIP levels = test: Example 4: double-blind cross-over meal study, serum GIP; type: in vivo, human; settings: 70p.g enprostil orally 30 minutes before meal; placebo four-fold increase
Experimental: as §1
Serum GIP levels are known to increase after meals.
Groups of 10 subjects participated in a double-blind, cross-over study. Either a placebo or 70p.g enprostil was orally given 30 minutes before meal time and levels of GIP were measured.

serum cholesterol = test: Example 1: oral enprostil, serum cholesterol in patients with high cholesterol baseline; type: in vivo, human; settings: five weeks
Experimental: as §1
A group of 20 patients with high cholesterol baseline were orally given 70 µg enprostil twice daily. […] The median change for the group was 16 percent reduction, with 60 percent of the patients tested showing a significant reduction in serum cholesterol.
A second group of 16 patients with a high cholesterol baseline were given […] enprostil twice daily.
A third group of 13 individuals were given a placebo. […] The median change was a 2 percent increase in cholesterol.

atherosclerotic plaque = test: Example 10: cholesterol-fed rabbit, aortic atherosclerotic plaque; type: in vivo, New Zealand white rabbits; settings: Group B: 2% cholesterol diet, enprostil 10 pg/Kg/day constant oral infusion, 56 days; vehicle Group A 25%
Experimental: Fortyfive New Zealand white rabbits were allocated to three groups, A, B, and C, each group consisting of 15 rabbits. Group A was fed a 2% cholesterol diet and received vehicle administered by constant oral infusion at 62 ul/day using an Alza minipump. Group B was also fed a 2% cholesterol diet but, via the minipump, received enprostil at an infusion rate of 10 pg/Kg/day. Group C was fed a normal diet and received no treatment.
At the end of 56 days of the above treatments, rabbits were sacrificed and their aortic tissue was subjected to pathologic examination. In Group C, the placebo control group, the percent of aortic area covered by atherosclerotic plaque was under 5%. In the rabbits from Group A, which had received the high cholesterol diet with vehicle infusion, 25% of the aortic area was covered with atherosclerotic plaque. These findings contrasted with those for the Group B rabbits, which in addition to the high cholesterol diet had received enprostil by continuous infusion . In these animals, only 10% of aortic tissue was covered with atheromatous plaque. This finding is statistically significant from the Group A rabbits.

insulin and GIP = test: Example 9: fatty meal study, insulin and GIP; type: in vivo, human
Experimental: as §1
(§3) Six male subjects participated in a double-blind cross-over study. Either placebo or enprostil […] was orally given 30 minutes before a fatty meal consisting of approximately 600 Kcal, 90% of which was fat. Following the meal, serum triglycerides and total serum cholesterol were measured at serial time points before and after removal of serum chylomicrons by ultracentrifugation. Serum HDL-cholesterol was measured only before chylomicron removal.

serum triglycerides = test: Example 9: double-blind cross-over fatty meal study, serum and chylomicron triglycerides; type: in vivo, human
Experimental: as §1, §3

serum cholesterol levels [5] = test: Example 2, Table 2: 9-day placebo-controlled cross-over study in normocholesterolemic subjects, serum lipids and apoproteins; type: in vivo, human; design: Mean reduction of cholesterol / Mean reduction of LDL-cholesterol / Mean reduction of HDL-cholesterol / Mean reduction of apoprotein-A / Mean reduction of apoprotein-B: concentration or dose not given beside the values; settings: 9-day cross-over
Experimental: as §1
To further clarify the nature of these changes in a prospective manner, normal subjects were dosed with enprostil for periods ranging from 8 days up to 44 days in duration.
In a 9-day placebo-controlled cross-over study, with each subject serving as their own control, the mean reduction in cholesterol, LDL-cholesterol, and HDL-cholesterol are shown in Table 2.
These findings are surprising since the subjects in this study were normocholesterolemic at baseline (that is serum cholesterol under 250 mg/dl) and were on a free diet with no attempt to regulate dietary cholesterol intake.

[6] = Animal antisecretory assays; type: in vivo; settings: compared with enprostil (isomer mixture)
insulin levels = settings: cited from earlier work
[7] = of nine evaluable subjects receiving enprostil
[8] = one subject, baseline to day 44
[9] = enprostil 35 pg before fatty meal
[10] = administered by tube to the duodenum

Structure (SMILES): COC(=O)CCC=C=CCC1C(=O)CC(O)C1C=CC(O)COc1ccccc1 (racemic) [enprostil, methyl (±)-7-[(1R*,2R*,3R*)-3-hydroxy-2-[(E)-(3R*)-3-hydroxy-4-phenoxy-l-butenyl]-5-oxocyclopentyl]-4,5-heptadienoate]
- peak blood glucose levels versus placebo (serum glucose levels; standard breakfast): substantially reduced
- time of appearance of peak blood glucose levels (serum glucose levels; standard breakfast 30 minutes after dose, placebo approximately 60 minutes): ~90 min
- Cholesterol % decrease (combined 2-12 week of dosing) (serum cholesterol levels [1]; 7 µg BID, 9 hypercholesterolemic subjects): 67%
- Median % change (cholesterol) (serum cholesterol levels [1]; 7 µg BID, 9 subjects): -11%
- Cholesterol % decrease (combined 2-12 week of dosing) (serum cholesterol levels [1]; 35 µg BID, 28 hypercholesterolemic subjects): 64%
- Median % change (cholesterol) (serum cholesterol levels [1]; 35 µg BID, 28 subjects): -13%
- Cholesterol % decrease (combined 2-12 week of dosing) (serum cholesterol levels [1]; 70 µg BID, 28 hypercholesterolemic subjects): 64%
- Median % change (cholesterol) (serum cholesterol levels [1]; 70 µg BID, 28 subjects): -17%
- serum glucose by time curves following intravenous glucose administration, enprostil versus placebo (serum glucose): no marked differences
- peak serum xylose levels (serum xylose; 70 µg enprostil per day, days 1 and 9): marked suppression and delay
- reduction in the amount of xylose excreted over 5 hours (serum xylose; 70 µg per day): 30%
- amount of xylose excreted over 5 hours (serum xylose; 70 µg per day, placebo 1.8g): 1.3 g
- raise in glucose levels after the meal [2]: no statistically or clinically significant raise
- increase of insulin levels after the meal ([2]; placebo five-fold): two-fold
- serum GIP ([3]; both study days): essentially complete inhibition
- serum insulin concentrations for each time point ([3]; day 1 and 8): marked reduction
- reduction of area under the serum glucose by time curve compared to the placebo phase ([3]; day 1 and day 8): 15-20%
- individuals with reduction in total and LDL-cholesterol throughout the entire 44-day period (serum cholesterol levels [4]; [7]): Three
- subjects showing a reduction of total cholesterol by 16 days (serum cholesterol levels [4]; [7]): Six
- total serum cholesterol at day 44 (serum cholesterol levels [4]; one subject (most dramatic example), mean baseline 208 mg/dl, normocholesterolemic, no dietary manipulation): 123 mg/dL
- LDL-cholesterol at day 44 (serum cholesterol levels [4]; one subject, baseline 140 mg/dl): 75 mg/dL
- reduction in LDL-cholesterol (serum cholesterol levels [4]; [8]): 46%
- reduction of total serum cholesterol (serum cholesterol levels [4]; [8]): 43%
- increase in serum GIP 60 minutes after the meal stimulus (serum GIP levels): no increase
- median change (reduction) of serum cholesterol (serum cholesterol; 35 pg enprostil twice daily, 16 patients with high cholesterol baseline): eleven
- number of patients showing greater than 10 percent serum cholesterol reduction (serum cholesterol; 35 pg twice daily, 16 patients): eight
- number of patients showing greater than 25 percent reduction (serum cholesterol; 35 pg twice daily, 16 patients): one
- number of patients showing no change in serum cholesterol (serum cholesterol; 35 pg twice daily, 16 patients): seven
- patients showing serum cholesterol reduction (serum cholesterol; 35 pg twice daily, 16 patients): 56%
- median change (reduction) of serum cholesterol (serum cholesterol; 70 µg enprostil orally twice daily, 20 patients with high cholesterol baseline): 16%
- number of patients showing greater than 10 percent reduction (serum cholesterol; 70 µg twice daily, 20 patients): eleven
- number of patients showing greater than 25 percent reduction (serum cholesterol; 70 µg twice daily, 20 patients): one
- number of patients showing no change in serum cholesterol (serum cholesterol; 70 µg twice daily, 20 patients): eight
- patients tested showing a significant reduction in serum cholesterol (serum cholesterol; 70 µg twice daily, 20 patients): 60%
- aortic tissue covered with atheromatous plaque (atherosclerotic plaque): 10%
- insulin levels following the fatty meal (insulin and GIP; enprostil 35 pg, at 30, 60, and 90 minutes): significantly lower
- GIP levels following the fatty meal (insulin and GIP; enprostil 35 µg, up to 360 minutes, p<0.05): virtually completely suppressed
- maximal postprandial total serum triglycerides before chylomicron removal (serum triglycerides; enprostil 35 pg 30 minutes before fatty meal, at 360 minutes, placebo 160 mg/dl at 120 minutes): 105 mg/dL
- appearance of postprandial serum (serum triglycerides; [9]): remained clear
- chylomicron triglyceride content (in words) (serum triglycerides; [9]): virtually complete suppression
- chylomicron-associated triglyceridemia through 120 minutes (serum triglycerides; [9]): complete absence
- fasting baseline total serum triglycerides before chylomicron removal (serum triglycerides; enprostil 35 pg phase, mean, placebo 86 mg/dl): 83 mg/dL
- fasting serum triglycerides after chylomicron removal (serum triglycerides; enprostil 35 pg phase, placebo 82 mg/dl): 80 mg/dL
- maximal postprandial serum triglycerides after chylomicron removal (serum triglycerides; enprostil 35 pg, 360 minutes, placebo 115 mg/dl (180 minutes)): 89 mg/dL
- mean rise of chylomicron triglyceride content over fasting level (serum triglycerides; enprostil 35 pg, at 360 minutes after fatty meal, placebo 46 mg/dl (120 minutes)): 16 mg/dL
- change in total triglycerides (serum cholesterol levels [5]): essentially no change
- Mean reduction of HDL-cholesterol (serum cholesterol levels [5]; free diet): -9.2%
- Mean reduction of LDL-cholesterol (serum cholesterol levels [5]; free diet): -21.0%
- Mean reduction of apoprotein-A (serum cholesterol levels [5]; free diet): -1.8%
- Mean reduction of apoprotein-B (serum cholesterol levels [5]; free diet): -16.0%
- Mean reduction of cholesterol (serum cholesterol levels [5]; free diet): -15.0%

Structure (SMILES): COC(=O)CCC=C=CC[C@H]1C(=O)C[C@@H](O)[C@@H]1/C=C/[C@@H](O)COc1ccccc1 (single isomer, unassigned) [R allenic isomer of enprostil]
- potency in animal antisecretory assays [6]: increased potency
- toxicity in animal antisecretory assays [6]: lower toxicity

Structure (SMILES): CCCCC[C@](C)(O)/C=C/[C@H]1[C@H](O)CC(=O)[C@@H]1C/C=C\CCCC(=O)OCC [(15S),15-methyl-PGE2 ethyl ester]
- glucose levels (insulin levels; intravenous administration): without affecting
- insulin levels (insulin levels; intravenous administration): lowered

Structure (SMILES): CCCCC[C@](C)(O)/C=C/[C@H]1[C@H](O)CC(=O)[C@@H]1C/C=C\CCCC(=O)OC [(15S),15-methyl-PGE2 methyl ester]
- insulin levels (insulin levels; [10]): lowered
- serum glucose levels (insulin levels; [10]): no change
- time to peak serum glucose levels (insulin levels; intraduodenally or intravenously): no change
